Experimental data reported in article PMC10694853, “Bio-guided isolation of alpha-glucosidase inhibitory compounds from Vietnamese Garcinia schomburgkiana fruits: in vitro and in silico studies” (RSC Advances, 2023).
Entries after “also recorded” stand apart in the source; their conditions may differ. Where two headings read alike, the source gives them in different places.

Tests used:
[1] = target: yeast alpha-glucosidase; experiment: Alpha-glucosidase inhibition assay; assay type: biochemical; details: isolated compounds
Procedure: Extracts and fractions EA1–EA16 were evaluated for the alpha-glucosidase inhibition to choose the fraction for further analysis. The isolation of 1–11 was described in Scheme 1 using silica gel CC with various solvent systems.
Evaluation of the inhibitory activity of 1–11 against yeast alpha-glucosidase followed a previous procedure.[34]

[2] = target: alpha-glucosidase; details: cited from earlier work; for IC50: read-out: Alpha-glucosidase inhibition IC50
[3] = system: alpha-glucosidase; experiment: Kinetic study of alpha-glucosidase inhibition (Lineweaver–Burk plots); assay type: biochemical
Procedure: To better understand the kinetic parameters of alpha-glucosidase inhibition by 2, the enzyme activity was assessed by varying substrate concentrations in the absence or presence of 2. The inhibition type was identified through Lineweaver–Burk plots (Fig. 3A), where the reciprocal of the reaction rate (1/V) was graphed against the reciprocal of substrate concentrations (1/[S]). This approach allowed monitoring the effect of the inhibitor on both Km and Vmax. […] The inhibition constant for the inhibitor binding with free enzyme (Ki) was determined from a plot of the slope (Km/Vm) versus the inhibitor concentration (Fig. 3B).
The kinetics of 2 against alpha-glucosidase was conducted by varying the concentration of p-NPG substrate in the absence or presence of tested compound at different concentrations (0, 30.0, and 60.0 μM). The Lineweaver–Burk plots were used to determine the inhibition type. In addition, the inhibition constant Ki is an indication of the potency of an inhibitor and was determined from secondary plots of 1/V vs. [I].[35] The Lineweaver–Burk double-reciprocal plot (1/V vs. 1/[S]) was employed to discern the Vmax, […], and mode of inhibition (Fig. 10). [drawing 1]

[4] = target: protein tyrosine phosphatase 1B; design: method as in PMID 34111550; details: isolated from H. forrestii; read-out: PTP1B inhibition IC50; cited from earlier work

Compound | IC50 [1] | also measured
CC(C)=CCCC(C)=CCC12CC3CC4C(C)(C)CCC4(C1=O)C(=O)C(C(=O)c1ccccc1)(C2=O)C3(C)C (stereo not shown) [Compound 4, hypersampsone I] | 131 ± 4.6 µM | –
COc1cc2oc3cc(O)c(OC)c(CC=C(C)C)c3c(=O)c2c(O)c1CC=C(C)C [Compound 7, β-mangostin] | > 200 µM | –
COc1c(O)cc2oc3cc(O)c(CC=C(C)C)c(O)c3c(=O)c2c1CC=C(C)C [Compound 8, α-mangostin] | > 200 µM | –
COc1c(O)cc2oc3cc(O)c4c(c3c(=O)c2c1CC=C(C)C)OC(C)(C)C(O)C4 (stereo not shown) [Compound 11, 11-hydroxy-1-isomangostin] | > 200 µM | –
CC(C)=CCCC1(C)C(CC=C(C)C)CC2(CC=C(C)C)C(=O)C(C(=O)c3ccccc3)=C(O)C1C2=O (stereo not shown) [Guttiferone Q] | – | IC50 [2]: 118 µM
C[C@H]1O[C@H](O[C@H]2[C@H](O)[C@@H](O)[C@@H](O[C@H]3[C@H](O)[C@@H](O)C(O)O[C@@H]3CO)O[C@@H]2CO)[C@H](O)[C@@H](O)[C@@H]1N[C@H]1C=C(CO)[C@@H](O)[C@H](O)[C@H]1O (stereo partly shown) [acarbose] | – | Inhibition type ([2]; positive control, previous work): competitive inhibitor
CC(C)=CCCC1(C)C(CC=C(C)C)CC23CCC(C)(C)OC2=C(C(=O)c2ccc(O)c(O)c2)C(=O)C1(CC=C(C)C)C3=O (stereo not shown) [schomburgkianone I] | – | IC50 ([2]; isolated from Thai G. schomburgkiana sources): 21.2 µM

Further lines, with some results ahead:

IC50 [1] | Compound | also measured
60.7 ± 3.6 µM | CC(C)=CCCC1(C)C(CC=C(C)C)CC2(CC=C(C)C)C(=O)C(C(=O)c3ccccc3)=C(O)C1C2=O (stereo not drawn) [Compound 1, epi-guttiferone Q] | –
29.4 ± 1.2 µM | CC(C)=CCC/C(C)=C/C[C@H]1C[C@]2(CC=C(C)C)C(=O)[C@@](CC=C(C)C)(C(=O)C(C(=O)c3ccc(O)c(O)c3)=C2O)[C@]1(C)CCC=C(C)C [Compound 2, guttiferone I] | IC50 ([2]; compound from G. cowa): 13.1 µM; Inhibition type ([3]; Lineweaver–Burk plots, Vmax constant, Km increased): competitive inhibitor; also recorded: competitive type; Ki ([3]; from plot of slope (Km/Vm) versus inhibitor concentration, p-NPG substrate, read-out: Inhibition constant Ki): 69.2 µM
116 ± 2.7 µM | C=C(C)C1CC23C(=O)C4(CC=C(C)CCC=C(C)C)CC(CC2C1(C)C)C(C)(C)C(C(=O)c1ccccc1)(C4=O)C3=O (stereo not shown) [Compound 5, sampsonione D] | –
56.9 ± 1.9 µM | CC(C)=CCC/C(C)=C/C[C@]12C[C@@H]3C[C@H]4C(C)(C)CC[C@@]4(C1=O)C(=O)[C@](C(=O)c1ccccc1)(C2=O)C3(C)C [Compound 6, sampsonione H] | IC50 [4]: 6.63 ± 2.4 µM
16.2 ± 0.7 µM | guttiferone K [Compound 3] | –
